From patent US8754049B2, “Organic compound for the regulation of vectorial ion channels” (APEPTICO Forschung und Entwicklung GmbH, priority 2010, dated 2014)
Non-standard residues stand in square brackets, D forms with d. Residues, ends and D or L forms follow the SMILES beside them. Ahp = NCCCCCCC(=O)O

How the values were obtained:
[1] = molecular target: T1, epithelial sodium channels (Homo sapiens, UniProt P37088+P51168+P51170); test: Patch-clamp measurement, whole cell configuration, amiloride-sensitive sodium current in A549 cells; assay type: cell-based; settings: for Activity in comparison to a peptide SEQ ID NO: 10 CGQRETPEGAEKPWYC ("TIP-Peptid", Lucas et al. Science 1994 also WO00/09149): whole cell patch-clamp, A549 cells, amiloride-sensitive sodium current, relative to TIP peptide SEQ ID NO: 10
T1 construct: endogenous in cells; host or cells: A549 human lung epithelial cells (ATTC No. CCL-185)
Source text: The detection of a vectorial regulation of ion channels by a compound may be effected according to a method common in laboratories, for example, according to Clunes M. T. et al., J. Physiolo. (2004) 557.3: 809-819), via patch-clamp experiments. For patch-clamp examinations of ion channels, a glass cannula is stretched thin and filled with a neutral buffer solution. The glass cannula (patch-clamp pipette) is carefully pressed onto an intact epithelial cell. A piece of membrane is located below the pipette. An electrical resistance is thereby produced between the interior of the pipette and the external solution. An electrode attached to a sensitive amplifier dips into the pipette solution.
A regulation of the vectorial epithelial ion channels is detected via a change in the current intensity with a constant voltage.
(§1) The electrophysiological experiments were performed on human A549 cells (ATTC No. CCL-185). A549 cells are human lung epithelial cells which are involved in the diffusion of water and electrolytes in the lungs. The cells were suspended in RPMI-1640 medium (Sigma-Aldrich, product number R6504) with 1% penicillin/streptomycin and 10% fetal calf serum, transferred into plastic cell culture vessels and cultivated in an incubator with 95% air and 5% CO2 at 37° C. The medium was changed 2 to 3 times per week. The cells double within approx. 22 hours, and a cell concentration of more than 7×10^4 cells per cm^2 was not exceeded.
For the patch-clamp experiments, the cells were transferred onto small glass plates.
Macroscopic currents were discharged from A549 cells in the “whole cell” configuration of the “patch-clamp” technique (Hamill et al, Pflugers Arch. 1981, 391(2):85-100, 1981). For the current dissipations in the “whole cell” configuration, the following bath and electrode solutions were used:
Bath solution: 135 mM sodium methanesulfonate, 10 mM NaCl, 2.7 mM KCl, 1.8 mM CaCl2, 2 mM MgCl2, 5.5 mM glucose, and 10 mM HEPES, pH 7.4.
Electrode solution: 120 mM potassium methanesulfonate, 15 mM KCl, 6 mM NaCl, 1 mM Mg2ATP, 2 mM Na3ATP, 10 mM HEPES, and 0.5 mM EGTA (pH 7.2).
Cover slips with the cells cultivated thereon were transferred into a test bath with a capacity of 1 ml, fixed on the microscope table (Axiovert 100, 400-fold magnification), and the cells were superfused with the above-described bath solution. Thereupon, the current was discharged from a suitable cell (which adheres to the cover slip). For this purpose, a microelectrode filled with an electrolyte solution (glass capillary with a defined, heat-polished tip opening of about 1-3 μm, corresponding to a resistance of the electrode tip of […]) was placed on the cell and the membrane was sucked in so that a “Gigaohm seal” was formed between the membrane and the electrode in order to minimize the leakage current. In the “whole cell” configuration, the membrane was penetrated beneath the electrode tip so that the current flowing through all ion channels of the cell could be measured. Upon obtaining a Gigaohm seal, a defined membrane retaining potential was applied via a pre-amplifier (CV-4 Headstage, Axon Instruments) and an amplifier (Axopatch 1 D, Axon Instr.) and the current thereby flowing through the ion channels was measured.
The pulse protocol consisted of a hyperpolarization of the cell membrane to −100 mV for 5 s and a subsequent gradual depolarization to +100 mV in 20 mV steps.
This protocol was performed before (control) and after the addition of ring-shaped organic molecules. The current dissipations thus obtained were stored and analyzed by means of the program PCLAMP 6.0. For this purpose, the current dissipations obtained in the presence of amiloride were subtracted from the currents recorded earlier so that the amiloride-sensitive sodium current through the epithelial sodium channels could be determined.

human A549 cells = test: Microscopic observation of A549 cells after addition of compounds; assay type: cell-based; settings: microscopic observation after addition of compound
Description: as §1
The cells were microscopically observed.

T1 sequence (P51170 whole entry): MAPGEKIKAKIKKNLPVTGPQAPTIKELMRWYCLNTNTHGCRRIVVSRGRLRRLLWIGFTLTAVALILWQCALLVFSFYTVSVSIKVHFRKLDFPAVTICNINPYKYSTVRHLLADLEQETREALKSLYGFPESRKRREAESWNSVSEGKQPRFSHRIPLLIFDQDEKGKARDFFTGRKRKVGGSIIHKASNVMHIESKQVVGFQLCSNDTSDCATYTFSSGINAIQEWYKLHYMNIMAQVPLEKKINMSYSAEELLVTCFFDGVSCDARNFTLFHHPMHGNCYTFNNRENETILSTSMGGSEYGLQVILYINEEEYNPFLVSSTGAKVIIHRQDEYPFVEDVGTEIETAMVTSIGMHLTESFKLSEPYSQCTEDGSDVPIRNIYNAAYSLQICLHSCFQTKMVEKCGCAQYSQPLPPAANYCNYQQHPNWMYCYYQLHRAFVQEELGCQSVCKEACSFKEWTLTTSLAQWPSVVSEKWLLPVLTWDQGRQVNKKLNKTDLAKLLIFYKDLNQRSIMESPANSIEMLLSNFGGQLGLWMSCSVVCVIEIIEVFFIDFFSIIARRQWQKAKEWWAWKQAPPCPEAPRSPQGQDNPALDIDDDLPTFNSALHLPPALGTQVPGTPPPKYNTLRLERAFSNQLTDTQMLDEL
T1 sequence (P37088 whole entry): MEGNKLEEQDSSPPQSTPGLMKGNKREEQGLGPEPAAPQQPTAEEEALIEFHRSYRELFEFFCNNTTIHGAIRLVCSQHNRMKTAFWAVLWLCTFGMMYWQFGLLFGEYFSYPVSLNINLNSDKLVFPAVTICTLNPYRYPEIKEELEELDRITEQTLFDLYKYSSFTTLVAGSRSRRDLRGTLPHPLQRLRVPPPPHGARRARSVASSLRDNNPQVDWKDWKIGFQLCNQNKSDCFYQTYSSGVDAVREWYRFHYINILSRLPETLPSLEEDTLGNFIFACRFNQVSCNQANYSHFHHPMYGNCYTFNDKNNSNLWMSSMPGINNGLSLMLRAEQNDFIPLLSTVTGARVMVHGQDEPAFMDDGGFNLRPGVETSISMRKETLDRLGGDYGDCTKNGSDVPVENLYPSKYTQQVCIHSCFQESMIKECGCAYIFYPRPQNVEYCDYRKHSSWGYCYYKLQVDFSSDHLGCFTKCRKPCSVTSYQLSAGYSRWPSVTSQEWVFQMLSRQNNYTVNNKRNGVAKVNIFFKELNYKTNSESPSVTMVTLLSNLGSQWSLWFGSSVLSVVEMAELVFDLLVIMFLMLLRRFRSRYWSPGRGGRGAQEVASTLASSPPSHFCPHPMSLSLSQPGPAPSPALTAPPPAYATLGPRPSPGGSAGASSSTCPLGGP
T1 sequence (P51168 whole entry): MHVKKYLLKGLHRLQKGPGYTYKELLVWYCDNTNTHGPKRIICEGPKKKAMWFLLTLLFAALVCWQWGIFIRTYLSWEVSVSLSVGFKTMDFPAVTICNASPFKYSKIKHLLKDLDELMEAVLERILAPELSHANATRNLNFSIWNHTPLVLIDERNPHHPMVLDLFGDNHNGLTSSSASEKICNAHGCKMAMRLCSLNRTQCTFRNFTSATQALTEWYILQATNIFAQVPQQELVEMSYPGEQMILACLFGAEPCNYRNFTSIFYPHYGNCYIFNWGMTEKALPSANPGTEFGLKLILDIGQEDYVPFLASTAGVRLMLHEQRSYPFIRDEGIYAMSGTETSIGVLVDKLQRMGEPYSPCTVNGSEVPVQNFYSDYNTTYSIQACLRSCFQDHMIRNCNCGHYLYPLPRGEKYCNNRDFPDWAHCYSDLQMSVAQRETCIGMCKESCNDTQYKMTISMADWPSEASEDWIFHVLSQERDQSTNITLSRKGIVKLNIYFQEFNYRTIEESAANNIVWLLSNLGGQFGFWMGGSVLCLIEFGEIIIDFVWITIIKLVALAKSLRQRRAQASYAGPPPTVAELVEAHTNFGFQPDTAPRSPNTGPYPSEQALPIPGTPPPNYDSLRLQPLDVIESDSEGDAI

With `C[C@@H]1NC(=O)CNC(=O)[C@H](CCC(=O)O)NC(=O)[C@@H]2CCCN2C(=O)[C@H]([C@@H](C)O)NC(=O)[C@H](CCC(=O)O)NC(=O)[C@H](CCCNC(=N)N)NC(=O)[C@H](CCC(N)=O)NC(=O)CNC(=O)[C@@H](N)CCCCNC(=O)CNC(=O)[C@H](Cc2ccc(O)cc2)NC(=O)[C@H](Cc2c[nH]c3ccccc23)NC(=O)[C@@H]2CCCN2C(=O)[C@H](CCCCN)NC(=O)[C@H](C)NC(=O)[C@H](CCC(=O)O)NC1=O` [SEQ ID NO: 1, [KGQRETPEGAEAKPWYG] (cyclo Kepsilon1-G17)] the “Activity in comparison to a peptide SEQ ID NO: 10 CGQRETPEGAEKPWYC ("TIP-Peptid", Lucas et al. Science 1994 also WO00/09149)” value [1] was 150%, the “changes in morphology or cell growth” value (human A549 cells) was “did not produce any changes in morphology or cell growth” and the death of cells (human A549 cells) was “did not result in the death of cells”.
`C[C@@H]1NC(=O)CNC(=O)[C@H](CCC(=O)O)NC(=O)[C@@H]2CCCN2C(=O)[C@H]([C@@H](C)O)NC(=O)[C@H](CCC(=O)O)NC(=O)[C@H](CCCNC(=N)N)NC(=O)[C@H](CCC(N)=O)NC(=O)CNC(=O)[C@@H](N)CCCNC(=O)CNC(=O)[C@H](Cc2ccc(O)cc2)NC(=O)[C@H](Cc2c[nH]c3ccccc23)NC(=O)[C@@H]2CCCN2C(=O)[C@H](CCCCN)NC(=O)[C@H](C)NC(=O)[C@H](CCC(=O)O)NC1=O` [SEQ ID NO: 2, [ornithine-GQRETPEGAEAKPWYG] (cyclo Orn-delta1-G17)] was tested, and the “Activity in comparison to a peptide SEQ ID NO: 10 CGQRETPEGAEKPWYC ("TIP-Peptid", Lucas et al. Science 1994 also WO00/09149)” value [1] was 115%, the “changes in morphology or cell growth” value (human A549 cells) was “did not produce any changes in morphology or cell growth” and the death of cells (human A549 cells) was “did not result in the death of cells”.
`C[C@@H]1NC(=O)CNC(=O)[C@H](CCC(=O)O)NC(=O)[C@@H]2CCCN2C(=O)[C@H]([C@@H](C)O)NC(=O)[C@H](CCC(=O)O)NC(=O)[C@H](CCCNC(=N)N)NC(=O)[C@H](CCC(N)=O)NC(=O)CNC(=O)CCCCNC(=O)CNC(=O)[C@H](Cc2ccc(O)cc2)NC(=O)[C@H](Cc2c[nH]c3ccccc23)NC(=O)[C@@H]2CCCN2C(=O)[C@H](CCCCN)NC(=O)[C@H](C)NC(=O)[C@H](CCC(=O)O)NC1=O` [SEQ ID NO: 3, [5-amino-pentanoic acid-GQRETPEGAEAKPWYG] (cyclo 1-17)] was tested, and the “changes in morphology or cell growth” value (human A549 cells) was “did not produce any changes in morphology or cell growth” and the death of cells (human A549 cells) was “did not result in the death of cells”.
For `C[C@@H]1NC(=O)CNC(=O)[C@H](CCC(=O)O)NC(=O)[C@@H]2CCCN2C(=O)[C@H]([C@@H](C)O)NC(=O)[C@H](CCC(=O)O)NC(=O)[C@H](CCCNC(=N)N)NC(=O)[C@H](CCC(N)=O)NC(=O)CNC(=O)CCCNC(=O)CNC(=O)[C@H](Cc2ccc(O)cc2)NC(=O)[C@H](Cc2c[nH]c3ccccc23)NC(=O)[C@@H]2CCCN2C(=O)[C@H](CCCCN)NC(=O)[C@H](C)NC(=O)[C@H](CCC(=O)O)NC1=O` [SEQ ID NO: 4, [gamma-aminobutyric acid-GQRETPEGAEAKPWYG] (cyclo 1-17)], the “changes in morphology or cell growth” value (human A549 cells) was “did not produce any changes in morphology or cell growth” and the death of cells (human A549 cells) was “did not result in the death of cells”.
In the case of `C[C@@H]1NC(=O)CNC(=O)[C@H](CCC(=O)O)NC(=O)[C@@H]2CCCN2C(=O)[C@H]([C@@H](C)O)NC(=O)[C@H](CCC(=O)O)NC(=O)[C@H](CCCNC(=N)N)NC(=O)[C@H](CCC(N)=O)NC(=O)CNC(=O)CCCNC(=O)C[C@@H](C(=O)O)NC(=O)[C@H](Cc2ccc(O)cc2)NC(=O)[C@H](Cc2c[nH]c3ccccc23)NC(=O)[C@@H]2CCCN2C(=O)[C@H](CCCCN)NC(=O)[C@H](C)NC(=O)[C@H](CCC(=O)O)NC1=O` [SEQ ID NO: 5, [gamma-aminobutyric acid-GQRETPEGAEAKPWYD-OH] (cyclo 1-Dγ17)], the “Activity in comparison to a peptide SEQ ID NO: 10 CGQRETPEGAEKPWYC ("TIP-Peptid", Lucas et al. Science 1994 also WO00/09149)” value [1] is reported as 160%, the “changes in morphology or cell growth” value (human A549 cells) is reported as “did not produce any changes in morphology or cell growth” and the death of cells (human A549 cells) is reported as “did not result in the death of cells”.
`C[C@@H]1NC(=O)CNC(=O)[C@H](CCC(=O)O)NC(=O)[C@@H]2CCCN2C(=O)[C@H]([C@@H](C)O)NC(=O)[C@H](CCC(=O)O)NC(=O)[C@H](CCCNC(=N)N)NC(=O)[C@H](CCC(N)=O)NC(=O)CNC(=O)CCNC(=O)CC[C@@H](C(=O)O)NC(=O)[C@H](Cc2ccc(O)cc2)NC(=O)[C@H](Cc2c[nH]c3ccccc23)NC(=O)[C@@H]2CCCN2C(=O)[C@H](CCCCN)NC(=O)[C@H](C)NC(=O)[C@H](CCC(=O)O)NC1=O` [SEQ ID NO: 6, [3-amino-propanoic acid-GQRETPEGAEAKPWYE-OH] (cyclo 1-Eδ17)] was tested, and the “Activity in comparison to a peptide SEQ ID NO: 10 CGQRETPEGAEKPWYC ("TIP-Peptid", Lucas et al. Science 1994 also WO00/09149)” value [1] was 150%, the “changes in morphology or cell growth” value (human A549 cells) was “did not produce any changes in morphology or cell growth” and the death of cells (human A549 cells) was “did not result in the death of cells”.
With `C[C@@H]1NC(=O)CNC(=O)[C@H](CCC(=O)O)NC(=O)[C@@H]2CCCN2C(=O)[C@H]([C@@H](C)O)NC(=O)[C@H](CCC(=O)O)NC(=O)[C@H](CCCNC(=N)N)NC(=O)[C@H](CCC(N)=O)NC(=O)CNC(=O)CCCCCCNC(=O)[C@H](Cc2ccc(O)cc2)NC(=O)[C@H](Cc2c[nH]c3ccccc23)NC(=O)[C@@H]2CCCN2C(=O)[C@H](CCCCN)NC(=O)[C@H](C)NC(=O)[C@H](CCC(=O)O)NC1=O` [SEQ ID NO: 7, [7-amino-heptanoic acid-GQRETPEGAEAKPWY] (cyclo 1-16)] (cyclo(AEAKPWY[Ahp]GQRETPEG)) the “changes in morphology or cell growth” value (human A549 cells) was “did not produce any changes in morphology or cell growth” and the death of cells (human A549 cells) was “did not result in the death of cells”.
“CGTKPIELGPDEPKAVC (peptide published in EP 2 009 023) [SEQ ID NO: 11, known peptide for controlling fluid content in the alveoli, from EP 2 009 023, reference compound]” was tested, and the “Activity in comparison to a peptide SEQ ID NO: 10 CGQRETPEGAEKPWYC ("TIP-Peptid", Lucas et al. Science 1994 also WO00/09149)” value [1] was 80%.
For “LSPGQRETPEGAEAKPWYE (peptide published in WO 2009/073909) [SEQ ID NO: 12, known peptide from WO2009/073909 (PCT AT2008 448), reference compound]”, the “Activity in comparison to a peptide SEQ ID NO: 10 CGQRETPEGAEKPWYC ("TIP-Peptid", Lucas et al. Science 1994 also WO00/09149)” value [1] was 60%.
“[6-amino-hexanoic acid-GQRETPEGAEAKPWYG] (cyclo 1-17) [SEQ ID NO: 8]” was tested, and the “activation of the vectorial ionic current compared with known peptides SEQ ID NO: 10, 11 and 12” value ([1]; patch-clamp, comparison in words) was “significantly higher activations of the vectorial ionic current”, the “Activity in comparison to a peptide SEQ ID NO: 10 CGQRETPEGAEKPWYC ("TIP-Peptid", Lucas et al. Science 1994 also WO00/09149)” value [1] was 150% and the “changes in morphology or cell growth” value (human A549 cells) was “did not produce any changes in morphology or cell growth”. For the same compound, the death of cells (human A549 cells) was “did not result in the death of cells”.
